Source: publication PMC12508576, “Implementing a trilineage differentiation in the ReproTracker assay for improved teratogenicity assessment” (Frontiers in Toxicology, 2025)
Where two headings read alike, the source gives them in different places.

Legend:
[1] = test system: hiPSCs differentiating into hepatocyte-like cells; conditions: lineage call; footnote b: previously published data; ref Jamalpoor et al., 2022; cited from earlier work
[2] = test system: hiPSCs trilineage differentiation (cardiomyocytes, hepatocytes, neural rosette-like cells); assay: ReproTracker trilineage differentiation, overall teratogenicity prediction; conditions: for LOAEL compared with respective human therapeutic Cmax: Figure 4; for ReproTracker results LOAEL: lowest tested concentration with significant decrease of at least one biomarker, trilineage assay, 'N.d. up to x' given as > x
From the text: (§6) In ReproTracker, teratogenicity prediction of test compounds is based on a Weight of Evidence (WoE) approach, which considers both the significant decrease in biomarker expression and the morphological/functional changes following exposure to test compounds throughout differentiation assays.
(§7) This threshold, for any given biomarker, is defined as the average minus one time the standard deviation (SD) of the biomarker expression levels in solvent-exposed control cultures throughout the experiment. Reduced expression of the selected biomarkers below the set threshold in a concentration-dependent manner, upon exposure to a minimum of 2 consecutive non-cytotoxic concentrations would be considered significant (noted as +). A decrease in expression below the threshold without a clear dose-response would lead to an equivocal classification (noted as (+)). An increase in expression or a lack of response would be considered negative (noted as -). Disruption of morphology/functionality of the cultures upon compound exposure at the two highest tested concentrations in all biological replicates is considered as a morphological disruption (noted as +). Absence of significant effects results in a negative score (noted as -).
(§8) For each differentiation assay, the expression of two biomarkers and a morphological/functional read-out are considered. In the hepatocyte and cardiomyocyte differentiation, FOXA2 and BMP4 are considered germ-layer-specific biomarkers, while AFP and MYH6 are considered cell-specific biomarkers, respectively. When applying the WoE approach, the cell-specific biomarkers in hepatocyte and cardiomyocyte differentiation are given higher weight compared to the germ-layer specific biomarkers and morphology/functionality. For the neural differentiation, both PAX6 and NESTIN are given equal weight as they are considered cell-specific markers. In this case, both biomarkers are given higher weight than the morphological read-out.
(§9) Every measurement/observation is assigned a score (positive, negative, or equivocal). […] In the ReproTracker assay, a compound is identified as a teratogen if it receives a positive score in at least one of the trilineage differentiation assays (cardiomyocyte, hepatocyte, or neural differentiation). […] If neither biomarker expression levels nor morphology/functionality are affected in any of the differentiation assays, the response is considered negative.

[3] = read-out: Human therapeutic cmax, Table 1 (R3 I (2021), Schulz et al. (2020) and others); cited from earlier work
[4] = test system: hiPSCs trilineage differentiation (cardiomyocytes, hepatocytes, neural rosette-like cells); conditions: based on effects on cardiomyocytes and/or hepatocytes only; ref Jamalpoor et al., 2022; cited from earlier work
[5] = test system: hiPSCs differentiating into neural rosette-like cells
Experimental: (§1) Prior to differentiation, the cells were harvested and dissociated into single cells using Gibco™ TrypLE™ Select (ThermoFisher Scientific; Bleiswijk, Netherlands) for 5 min at 37 °C. Cells were seeded in Matrigel™-coated 24-well plates (ThermoFisher Scientific) in mTeSR™1 containing RevitaCell™ Supplement (ThermoFisher Scientific). […] The cells were cultured in this medium until D3. From D3 until the end of the differentiation protocol (D13) (one-step protocol), cells were cultured in N2B27 medium without ROCK inhibitor or LDN193189. In the case of the replating protocol, cells were replated at D7 and grown in the same medium until day 13. At the end of the differentiation, morphology of the cells was assessed using an Operetta CLS (Revvity) instrument. The expected morphology for each of the lineages, to ensure data acceptance and correct differentiations, is further described in Section 2.9 of the methods section. The trilineage differentiation was replicated in 96-well plates (ThermoFisher Scientific and Revvity Phenoplate) using the same differentiation protocols with an adapted number of cells for the seeding. And termination at D14.
(§2) Cells were harvested, and total RNA was isolated using the Maxwell® RSC simply RNA Cells Kit (cat. no.: #AS1390; Promega) on a Maxwell automated purification instrument (Maxwell RSC 48; Promega). […] Each individual primer was paired with its corresponding fluorophore and quencher and adjusted accordingly depending on gene abundance. Primer and probe sequences are described in Supplementary Table S1.
(§3) Data acceptance was based on the appropriate expression of the assessed biomarker genes in the differentiated populations, at appropriate times during differentiation. Failure to observe the expected temporal expression of key, lineage-specific biomarkers, during the cell fate choices associated with each differentiation protocol, would result in the experiment being invalidated.
(§4) To follow morphological changes throughout the hepatocyte and neural differentiation protocol, brightfield images of the cells were acquired after each medium refresh using an iRiS digital cell imaging microscope (Logos Biosystems) or an Operetta CLS (Revvity) instrument. Images were scored based on visual assessment. Cardiac contractability of cardiomyocytes was evaluated visually using an iRiS digital cell imaging microscope (Logos Biosystems).
(§5) Morphologically, cardiomyocytes are expected to group in fiber-like 3D structures that distribute throughout the entire plate. Aside from morphology, an additional criterion for cardiomyocyte differentiation in each experimental setup is for the contracting mature cardiomyocyte cultures exposed to solvent controls, to reach 75%. […] Neural rosettes are recognized by well-defined cell boundaries and multi-layered cultures. Functional/morphological assessment was completed independently from biomarker data analyses. Morphology scores were confirmed by a second person. Failure to observe the anticipated cell morphology/functionality throughout differentiation would result in invalidation of the experiment. Disruption in the morphology of cardiomyocytes is described as a lack of 3D-fibre-like structures in the cultures as well as a clear lack of contractions. Morphologically aberrant hepatocytes are characterized by a lack of polygonal structures with smaller cytoplasm that in the control cultures and the formation of dark cell-dense structures, commonly indicative of clumps of dead cells with big empty spaces between cell colonies.

[6] = test system: hiPSCs differentiating into hepatocyte-like cells; assay: ReproTracker hepatocyte differentiation assay
Experimental: as §1, §2, §3, §4, §5

human = conditions: Table 1 (R3 I (2021), Schulz et al. (2020) and others); cited from earlier work
[7] = test system: hiPSCs differentiating into cardiomyocyte-like cells; assay: ReproTracker cardiomyocyte differentiation assay
Experimental: as §1, §2, §3, §4, §5

undifferentiated hiPSCs [8] = test system: undifferentiated hiPSCs; parameters: method as in Jamalpoor et al., 2022; conditions: lowest concentration that induced a maximum of 20% cytotoxicity in hiPSCs; dose-range finding previously published; ref Jamalpoor et al., 2022; cited from earlier work
[9] = test system: hiPSCs differentiating into cardiomyocyte-like cells; conditions: lineage call; footnote b: previously published data; ref Jamalpoor et al., 2022; cited from earlier work
[10] = test system: hiPSCs differentiating into neural rosette-like cells; assay: Neural rosette differentiation, replating protocol, PAX6/NESTIN immunostaining; type: cell-based, human; conditions: for PAX6 protein levels: D13, non-cytotoxic concentrations; for NESTIN protein levels: D13, tacrolimus: highest tested concentration; for NESTIN localization: D13
Experimental: as §1
For neural rosette-like cells’ imaging, cells were washed with PBS and subsequently, cells were fixed using 4% paraformaldehyde in PBS. Permeabilization was performed using 0.1% Triton-X in PBS for 10 min at room temperature. Cells were blocked using 10% donkey serum diluted in PBS +0.1% Tween20 for 10 more minutes. Incubation with primary antibody overnight at 4 °C was performed to stain the cells. The cells were washed 3 times with PBS +0.1% Tween20 and incubated with a secondary antibody in PBS for 1 h at room temperature. Cellular nuclei were stained using Hoechst H33342 (CAS# […], Sigma Aldrich in a 1:5000 dilution). Imaging was done using an Operetta CLS (Revvity) instrument. Primary and secondary antibodies’ concentrations are described in Supplementary Table S2.
To quantify PAX6-and NESTIN-positive cells, Hoechst-stained nuclei were selected based on their fluorescent signal above the background. Cells were also excluded if touching the edge of the fields of view. Also, size exclusion was applied to avoid clustered nuclei being counted as single objects. Fluorescence measurements of PAX6 were performed within the defined nuclei and intracellularly for NESTIN. Then, a minimal fluorescence threshold was defined, resulting in the selection of PAX6-positive cells and NESTIN-positive cells. Finally, the percentages of PAX6-and NESTIN-positive cells were calculated using Revvity Harmony™ Software.
The compounds were tested in both the replating and the one-step protocols. Due to the nature of the protocols, teratogenicity prediction of the compounds was performed based on quantification of PAX6 and NESTIN-positive cells at D13 in the replating protocol or on a significant reduction in the biomarker gene expression at D7 and D13, as well as qualitative morphological analysis at D13 in the one-step protocol.

[11] = test system: hiPSCs trilineage differentiation (cardiomyocytes, hepatocytes, neural rosette-like cells); conditions: human
From the text: as §6, §7, §8, §9

undifferentiated hiPSCs [12] = assay: Concentration-range selection and cytotoxicity assessment (AlamarBlue); conditions: lowest concentration that induced a maximum of 20% cytotoxicity in hiPSCs, 7 days
Experimental: In short, hiPSCs were exposed to 20 consecutive concentrations of the test compounds using 1 mM or the maximum soluble concentration as the top concentration. Test compounds were added to the medium prior to the refreshes at D0 and D3. Cytotoxicity was estimated at D7; upon completion of the experiments, cells were incubated with resazurin solution (0.01 mg/mL in PBS) and measured absorbance (excitation 530 nm and emission 590 nm). Results were normalized against vehicle controls (0.1% v/v DMSO).
All compounds were tested at five consecutive concentrations in two-fold dilution steps. The top concentration was determined as the lowest concentration that induced a maximum of 20% cytotoxicity in the concentration range finding experiments. Compounds were then diluted 2-fold using serial dilutions.
Data acceptance for dose-range finding experiments was based on the response to positive and negative assay controls, and compound solubility and cytotoxicity. […] Concentrations of compound(s) inducing cytotoxicity and therefore reducing cell survival below 80% were excluded from further testing in differentiation assays.
Thus, to determine cytotoxicity of the test compounds, undifferentiated hiPSCs were exposed to 20 consecutive concentrations at 2-fold dilutions for 7 days. The lowest concentration that induced a maximum of 20% cytotoxicity in the concentration range finding experiment was applied as top concentration for the differentiation experiments.

[13] = lineage call (positive/equivocal/negative)

ReproTracker results Neural rosette-like cells [5]	ReproTracker results Hepatocyte-like cells [6]	ReproTracker results Cardiomyocyte-like cells [7]	NESTIN protein levels [10]	NESTIN gene expression at D13 [5]	PAX6 gene expression at D7 [5]	morphology of neural rosette-like cells [5]	SMILES	ReproTracker results LOAEL [2]	Cmax [3] [nM]	top concentration for the differentiation experiments (undifferentiated hiPSCs [8]) [µM]	PAX6 protein levels [10]	other results
Negative	Negative	Negative	no effect	no effect	no effect	no effect	O=C1NS(=O)(=O)c2ccccc21 [Saccharin]	N.d. up to 250 µM	–	250	no effect	–
Positive	Positive	Equivocal	increased	downregulated	downregulation	disrupted	C=CC[C@@H]1/C=C(\C)C[C@H](C)C[C@H](OC)[C@H]2O[C@@](O)(C(=O)C(=O)N3CCCC[C@H]3C(=O)O[C@H](/C(C)=C/[C@@H]3CC[C@@H](O)[C@H](OC)C3)[C@H](C)[C@@H](O)CC1=O)[C@H](C)C[C@@H]2OC [Tacrolimus]	–	0.6 to 30	7.81	concentration-dependent decrease	NESTIN localization [10]: affecting; LOAEL compared with respective human therapeutic Cmax [11]: higher; ReproTracker results LOAEL [11]: ≤0.2 µM; NGN2 gene expression [5]: no significant effect; OTX2 gene expression [5]: no significant effect; PAX6 gene expression at D13 [5]: increasing; SOX1 gene expression [5]: no significant effect

Continued, molecule first:

SMILES	ReproTracker results Neural rosette-like cells [5]	ReproTracker results Hepatocyte-like cells [6]	ReproTracker results Cardiomyocyte-like cells [7]	NESTIN protein levels [10]	NESTIN gene expression at D13 [5]	PAX6 gene expression at D7 [5]	morphology of neural rosette-like cells [5]	ReproTracker results LOAEL [2]	Cmax [3] [nM]	top concentration for the differentiation experiments (undifferentiated hiPSCs [8]) [µM]	PAX6 protein levels [10]	other results
COc1ccc([C@@H]2Sc3ccccc3N(CCN(C)C)C(=O)[C@@H]2OC(C)=O)cc1 [Diltiazem]	Positive	–	–	–	–	–	–	≤7.8 µM	60 to 300	–	–	ReproTracker results Hepatocyte-like cells [1]: Positive; LOAEL compared with respective human therapeutic Cmax [2]: higher; ReproTracker results LOAEL ([2]; listed as diltiazem): ≤ 7.8 µM; LOAEL before inclusion of the neural differentiation readout [4]: 31 µM
CO [Methanol]	Negative	Negative	Negative	–	–	–	–	N.d. up to 1000 µM	98700	–	–	In vivo classification H (human): NT (presumed)
[CH3][Hg][Cl] [Methylmercury]	–	–	–	–	–	–	–	N.d. up to 0.31 µM	1 to 30	0.3	–	ReproTracker results Hepatocyte-like cells [1]: Negative; ReproTracker results Cardiomyocyte-like cells [9]: Negative; ReproTracker results Neural rosette-like cells [5, 13]: Negative
Nc1cccc2c1C(=O)N(C1CCC(=O)NC1=O)C2=O (stereo not shown) [Pomalidomide]	–	–	–	–	–	–	–	≤12.5 µM	300 to 400	–	–	ReproTracker results Hepatocyte-like cells [6, 13]: Positive; In vivo classification H (human): T (presumed); ReproTracker results Cardiomyocyte-like cells [7, 13]: Positive; LOAEL compared with respective human therapeutic Cmax [2]: higher; ReproTracker results Neural rosette-like cells [5, 13]: Positive
CC1=C(/C=C/C(C)=C/C=C/C(C)=C/C(=O)O)C(C)(C)CCC1 [Tretinoin (Retinoic acid)]	Positive	Positive	Positive	increasing	downregulated	downregulation	disrupted	–	1300	–	significantly decreased	effect at the highest tested concentration in the replating protocol ([10]; 5 µM): complete cell death; NESTIN localization [10]: disrupted; top concentration for the differentiation experiments (undifferentiated hiPSCs [12]): 5 µM; LOAEL compared with respective human therapeutic Cmax [11]: equal to or below; ReproTracker results LOAEL [11]: ≤0.3 µM; NESTIN gene expression at D7 [5]: increased; OTX2 gene expression [5]: downregulation; PAX6 gene expression at D13 [5]: downregulation
